Measured values taken from article PMC8074287, “Analgesic and Anticancer Activity of Benzoxazole Clubbed 2-Pyrrolidinones as Novel Inhibitors of Monoacylglycerol Lipase” (Molecules, 2021).

What was measured:
Assay in all cases: NCI60 single-dose SRB assay
Assay type in all cases: cell-based, human
786-0 = settings: 786-0, Renal Cancer, 10 μM
Experimental: (§1) Compounds 19 and 20 were supplied to National Cancer Institute (USA), for sulforhodamine B (SRB) assay and anticancer screening. Single-dose (10 µM) assay results for compounds 19 and 20 were provided as a mean of percent growth (% G) and growth inhibition (% GI) against 60 cell lines of nine types of cancers and are tabulated in Table 4. […] Both the compounds 19 and 20 were also found active on UO-31 renal cancer cell line with % GI of 21.18 and 29.95, respectively.
(§2) Compounds 19 and 20 were supplied to National Cancer Institute (Bethesda, Maryland, USA), for in vitro sulforhodamine B (SRB) assay, anticancer screening on 60 cell lines of cancers of leukemia, melanoma, and tumors of the kidney, brain, breast, lung, colon, ovary, and prostate, as per their standard protocol. One dose anticancer results (NCI, USA) of compounds 19 and 20 are provided in the Supplementary Materials.

ACHN = settings: Renal Cancer, 10 μM
Experimental: as §1, §2

CCRF-CEM = settings: Leukemia, 10 μM
Experimental: as §1, §2

COLO 205 = settings: COLO 205, Colon Cancer, 10 μM
Experimental: as §1, §2

DU-145 = settings: DU-145, Prostate Cancer, 10 μM
Experimental: as §1, §2

HCC-2998 = settings: HCC-2998, Colon Cancer, 10 μM
Experimental: as §1, §2

HCT-15 = settings: HCT-15, Colon Cancer, 10 μM
Experimental: as §1, §2

HOP-92 = settings: HOP-92, Non-Small Cell Lung Cancer, 10 μM
Experimental: as §1, §2

HS 578T = settings: Breast Cancer, 10 μM
Experimental: as §1, §2

HT29 = settings: HT29, Colon Cancer, 10 μM
Experimental: as §1, §2

IGROV1 = settings: IGROV1, Ovarian Cancer, 10 μM
Experimental: as §1, §2

K-562 = settings: K-562, Leukemia, 10 μM
Experimental: as §1, §2

KM12 = settings: KM12, Colon Cancer, 10 μM
Experimental: as §1, §2

LOX IMVI = settings: Melanoma, 10 μM
Experimental: as §1, §2

M14 = settings: M14, Melanoma, 10 μM
Experimental: as §1, §2

MALME-3M = settings: Melanoma, 10 μM
Experimental: as §1, §2

MDA-MB-435 = settings: MDA-MB-435, Melanoma, 10 μM
Experimental: as §1, §2

MDA-MB-468 = settings: MDA-MB-468, Breast Cancer, 10 μM
Experimental: as §1, §2

NCI-H226 = settings: NCI-H226, Non-Small Cell Lung Cancer, 10 μM
Experimental: as §1, §2

OVCAR-5 = settings: OVCAR-5, Ovarian Cancer, 10 μM
Experimental: as §1, §2

SF-268 = settings: SF-268, CNS Cancer, 10 μM
Experimental: as §1, §2

SF-295 = settings: SF-295, CNS Cancer, 10 μM
Experimental: as §1, §2

SF-539 = settings: SF-539, CNS Cancer, 10 μM
Experimental: as §1, §2

SK-MEL-28 = settings: SK-MEL-28, Melanoma, 10 μM
Experimental: as §1, §2

SK-OV-3 = settings: SK-OV-3, Ovarian Cancer, 10 μM
Experimental: as §1, §2

SN12C = settings: Renal Cancer, 10 μM
Experimental: as §1, §2

SR = settings: Leukemia, 10 μM
Experimental: as §1, §2

SW-620 = settings: SW-620, Colon Cancer, 10 μM
Experimental: as §1, §2

TK-10 = settings: TK-10, Renal Cancer, 10 μM
Experimental: as §1, §2

UACC-257 = settings: UACC-257, Melanoma, 10 μM
Experimental: as §1, §2

UACC-62 = settings: UACC-62, Melanoma, 10 μM
Experimental: as §1, §2

UO-31 = settings: UO-31, Renal Cancer, 10 μM
Experimental: as §1, §2

NS(=O)(=O)c1ccc(N2CC(c3nc4ccccc4o3)CC2=O)cc1 (centres unmarked) [Compound 20, 4-(4-(Benzo[d]oxazol-2-yl)-2-oxopyrrolidin-1-yl)benzenesulfonamide]
% G (786-0): 98.99% | % GI (786-0): 1.01% | % G (ACHN): 89.48% | % GI (ACHN): 10.52% | % G (CCRF-CEM): 94.48% | % GI (CCRF-CEM): 5.52% | % G (COLO 205): 104.05% | % GI (COLO 205): −4.05% | % G (DU-145): 111.62% | % GI (DU-145): −11.62% | % G (HCC-2998): 100.24% | % GI (HCC-2998): −0.24% | % G (HCT-15): 101.16% | % GI (HCT-15): −1.16% | % G (HOP-92): 77.78% | % GI (HOP-92): 22.22% | % G (HS 578T): 104.19% | % GI (HS 578T): −4.19% | % G (HT29): 103.23% | % GI (HT29): −3.23% | % G (IGROV1): 101.63% | % GI (IGROV1): −1.63% | % G (K-562): 98.83% | % GI (K-562): 1.17% | % G (KM12): 101.16% | % GI (KM12): −1.16% | % G (LOX IMVI): 92.99% | % GI (LOX IMVI): 7.01% | % G (M14): 98.58% | % GI (M14): 1.42% | % G (MALME-3M): 93.29% | % GI (MALME-3M): 6.71% | % G (MDA-MB-435): 100.55% | % GI (MDA-MB-435): −0.55% | % G (MDA-MB-468): 100.34% | % GI (MDA-MB-468): −0.34% | % G (NCI-H226): 92.75% | % GI (NCI-H226): 7.25% | % G (OVCAR-5): 92.08% | % GI (OVCAR-5): 7.92% | % G (SF-268): 87.43% | % GI (SF-268): 12.57% | % G (SF-295): 93.71% | % GI (SF-295): 6.29% | % G (SF-539): 87.58% | % GI (SF-539): 12.42% | % G (SK-MEL-28): 101.79% | % GI (SK-MEL-28): −1.79% | % G (SK-OV-3): 94.77% | % GI (SK-OV-3): 5.23% | % G (SN12C): 95.50% | % GI (SN12C): 4.50% | % G (SR): 93.20% | % GI (SR): 6.80% | % G (SW-620): 102.95% | % GI (SW-620): −2.95% | % G (TK-10): 114.82% | % GI (TK-10): −14.82% | % G (UACC-257): 110.78% | % GI (UACC-257): −10.78% | % G (UACC-62): 92.78% | % GI (UACC-62): 7.22% | % G (UO-31): 70.05% | % GI (UO-31): 29.95%

O=C1CC(c2nc3ccccc3o2)CN1c1ccc([N+](=O)[O-])cc1 (centres unmarked) [Compound 19, 4-(Benzo[d]oxazol-2-yl)-1-(4-nitrophenyl)pyrrolidin-2-one]
% G (786-0): 104.06% | % GI (786-0): −4.06% | % G (ACHN): 91.70% | % GI (ACHN): 8.3% | % G (CCRF-CEM): 93.58% | % GI (CCRF-CEM): 6.42% | % G (COLO 205): 103.79% | % GI (COLO 205): −3.79% | % G (DU-145): 110.09% | % GI (DU-145): −10.09% | % G (HCC-2998): 102.05% | % GI (HCC-2998): −2.05% | % G (HCT-15): 98.10% | % GI (HCT-15): 1.9% | % G (HOP-92): 104.72% | % GI (HOP-92): −4.72% | % G (HS 578T): 101.81% | % GI (HS 578T): −1.81% | % G (HT29): 99.25% | % GI (HT29): 0.75% | % G (IGROV1): 104.14% | % GI (IGROV1): −4.14% | % G (K-562): 98.41% | % GI (K-562): 1.59% | % G (KM12): 105.43% | % GI (KM12): −5.43% | % G (LOX IMVI): 89.06% | % GI (LOX IMVI): 10.94% | % G (M14): 101.37% | % GI (M14): −1.37% | % G (MALME-3M): 88.53% | % GI (MALME-3M): 11.47% | % G (MDA-MB-435): 95.05% | % GI (MDA-MB-435): 4.95% | % G (MDA-MB-468): 98.03% | % GI (MDA-MB-468): 1.97% | % G (NCI-H226): 98.63% | % GI (NCI-H226): 1.37% | % G (OVCAR-5): 98.30% | % GI (OVCAR-5): 1.70% | % G (SF-268): 91.85% | % GI (SF-268): 8.15% | % G (SF-295): 98.21% | % GI (SF-295): 1.79% | % G (SF-539): 95.59% | % GI (SF-539): 4.41% | % G (SK-MEL-28): 111.25% | % GI (SK-MEL-28): −11.25% | % G (SK-OV-3): 88.34% | % GI (SK-OV-3): 11.66% | % G (SN12C): 97.21% | % GI (SN12C): 2.79% | % G (SR): 88.92% | % GI (SR): 11.08% | % G (SW-620): 102.52% | % GI (SW-620): −2.52% | % G (TK-10): 110.14% | % GI (TK-10): −10.14% | % G (UACC-257): 106.92% | % GI (UACC-257): −6.92% | % G (UACC-62): 97.59% | % GI (UACC-62): 2.41% | % G (UO-31): 78.82% | % GI (UO-31): 21.18%
